Measured values: patent publication US20260306460A1, “COMPOSITION FOR REMOVING AND INHIBITING SENESCENT CELLS, AND USES THEREOF” (LIFECEUTIX CO., LTD., priority 2023, published 2026)

What was measured:
Type in all cases: in vivo, mouse
SAMP8 mice = test: Cognitive impairment in SAMP8 mice (p16 mRNA, Y maze), Example 28, Table 52; settings: for Spontaneous alternation: Y maze test, 8 minutes, untreated 48.4 (±27.3); for p16 mRNA: hippocampus, daily for 21 days, untreated 100%
Procedure: Twelve-week-old male SAMP8 mice (SLC), a cognitive impairment model, were acclimated to the experimental environment for one week and then randomly assigned to experimental and control groups. […] LX-2101 was mixed with 5% DMSO (Sigma) in PBS and administered intraperitoneally at a concentration of 10 mg/kg daily for 21 days. The control group received only the same volume of solution. After drug administration, the mice were tested in the Y maze test to analyze the degree of cognitive and memory improvement. The Y-maze test is a method to assess short-term memory-type spatial awareness. It is a Y-shaped enclosed maze made of black acrylic to the following specifications (40 cm in length, 8 cm in width, 13 cm in height, with each arm angled 120 degrees). Three arms are designated A, B, and C. A mouse is carefully placed on one arm and allowed to move freely for 8 minutes. The arm into which the mouse enters up to its tail is recorded in order. Each instance of entering each arm sequentially is awarded 1 point (actual alternation). Alternation behavior is defined as entering all arms without overlapping, and spontaneous alternation behavior is calculated using the following formula:
Spontaneous alternation behavior (%)=Actual alternation/Maximum alternation×100 • Maximum alternation: Total number of entries-2
After the behavioral evaluation, the mice were sacrificed, and RNA from the hippocampus region of the brain was extracted using the same method as Example 7-2 of WO2023-085787 A1, and qRT-PCR was performed using the synthesized cDNA.

[1] = test system: naturally aged C57BL6J mice; test: Cardiac aging (cardiomyocyte size, Sur2a mRNA) in naturally aged mice, Example 21-13, Table 28; settings: heart; for Cardiomyocyte cross-sectional area (μm2): untreated aged 372 (±9); for Sur2a mRNA (fold): untreated aged = 1
Procedure: (§1) 22-month-old female C57BL6J mice (KRIBB Laboratory Animal Resource Center) were acclimated to the experimental environment for one week, after which the aged mice were randomly assigned to experimental and control groups. Eight-week-old, non-aged mice served as controls. LX-403 was mixed in a 10% ethanol solution of PEG400 and administered orally at a concentration of 25 mg/kg daily for 21 days, or administered to the skin, joints, or eyes at a concentration of 1 μM. LX-1801 was mixed in distilled water with 4% DMSO, 30% PEG300, and 5% Tween80 and administered to the skin, joints, or eyes at a concentration of 0.4 μM daily for 21 days. LX-2001 was mixed in PBS and administered to the skin, joints, or eyes at a concentration of […] daily for 21 days. LX-2002 was mixed in distilled water with 4% DMSO, 30% PEG300, and 5% Tween80 and administered to the skin, joints, or eyes at a concentration of 2 μM daily for 21 days. […] LX-2005 was mixed in distilled water with 4% DMSO, 30% PEG300, and 5% Tween80 and administered to the skin, joints, or eyes at a concentration of 90 μM daily for 21 days. LX-2007 was mixed in distilled water with 4% DMSO, 30% PEG300, and 5% Tween80 and administered to the skin, joints, or eyes at a concentration of 90 μM daily for 21 days. […] LX-3002 was mixed in distilled water with 4% DMSO, 30% PEG300, and 5% Tween80 and administered orally at a concentration of 10 mg/kg daily for 21 days. […] LX-5411 was mixed in 5% PBS and administered orally at a concentration of 10 mg/kg daily for 21 days or administered to the skin, joints, or eyes at a concentration of 3 μM. LX-5701 was mixed in PBS and administered orally at a concentration of 360 mg/kg daily for 21 days. LX-6807 was mixed in saline and administered intraperitoneally at a concentration of 1 mg/kg daily for 21 days. LX-2101 or LX-2102 was mixed in PBS solution with 5% DMSO and administered intraperitoneally at a concentration of 20 mg/kg or 10 mg/kg, respectively, daily for 21 days. The control group received only the solution in the same volume. After the end of drug administration, the methods described in each example below were performed.
At the histological level, cardiac aging is characterized by the loss of ventricular cardiomyocytes due to a decreased ability to replace apoptotic or necrotic cardiomyocytes, leading to hypertrophy of the remaining cardiomyocytes. To assess age-related cardiac hypertrophy, frozen cardiac tissue sections were stained with hematoxylin/eosin (H/E) and the thickness of ventricular cardiomyocytes was observed under an optical microscope.
Furthermore, cardiac aging is characterized by decreased stress tolerance, which is known to be due to decreased expression of ATP-sensitive potassium (KATP) channels. RNA was extracted from heart tissue as described in Example 7-2 of WO2023-085787 A1, and qRT-PCR was performed on Sur2a, a regulatory subunit of the KATP channel, using the synthesized cDNA.

[2] = test system: doxorubicin-induced aged C57BL6J mice; test: Liver damage (AST, ALT) in doxorubicin-aged mice, Example 22-8, Table 37; settings: serum, amount after aging calculated as 100%
Procedure: Eight-week-old male C57BL6J mice (KRIBB Laboratory Animal Resource Center) were acclimated to the experimental environment for one week. […] The aging-induced mice were randomly assigned to experimental and control groups. […] The control group received only the solution in the same volume.
The amounts were measured spectrophotometrically using a kit (Sigma) according to the manufacturer's instructions. […] The amount of each factor after aging was calculated as 100% and compared with the amount of each factor after treatment with the test compound.

[3] = test system: naturally aged C57BL6J mice; test: Kidney damage markers (urea, creatinine, Agtr1a mRNA) in naturally aged mice, Example 21-9, Table 24; settings: untreated aged = 100%; for Agtr1a mRNA (%): qRT-PCR; for Creatinine (%) / Urea (%): serum
Procedure: as §1
The levels of urea and creatinine, markers of kidney damage, in serum collected from mice were measured spectrophotometrically using kits (BioAssay Systems and Sigma). Additionally, the amount of Agtr1a mRNA, a marker of kidney damage, was measured using qRT-PCR as described in Example 7-2 of WO2023-085787 A1. […] The amount of each factor after aging was calculated as 100% and compared with the amount of each factor after test compound treatment.

[4] = test system: naturally aged C57BL6J mice; test: SASP mRNA (MMP3, IL1B, MMP12, IL6, MMP13) in naturally aged mice, Example 21-6, Table 22; settings: untreated aged = 100%
Procedure: as §1
Using cDNA synthesized in the same manner as Example 7-2 of WO2023-085787 A1, qRT-PCR was performed and analyzed for the senescence-associated secretory factors (SASPs) MMP3, IL1B, MMP12, IL6, and MMP13. […] The mRNA levels of each factor after aging induction were calculated as 100% and compared with the mRNA levels of each factor after test compound treatment.

Compound | Spontaneous alternation (SAMP8 mice) | p16 mRNA (SAMP8 mice) | Cardiomyocyte cross-sectional area (μm2) [1] | Sur2a mRNA (fold) [1] | ALT [2] | AST [2] | Agtr1a mRNA (%) [3] | Creatinine (%) [3] | Urea (%) [3] | MMP13 mRNA (%), Eye [4] | IL1β mRNA (%), Kidney [4] | MMP13 mRNA (%), Knee joint [4] | MMP3 mRNA (%), Liver [4] | MMP12 mRNA (%), Lung [4] | IL6 mRNA (%), Muscle [4] | MMP3 mRNA (%), Skin [4] | MMP12 mRNA (%), Skin [4] | MMP13 mRNA (%), Skin [4]
Cc1cccc([C@H](C)c2cnc[nH]2)c1C [LX-6807, Dexmedetomidine] | 60.7 (±4.3) % | 39 (±6.2) % | 281 (±47.1) μm2 | 3.0 (±0.2) fold | 80 (±6.7) % | 75 (±7.0) % | 37 (±4.0) % | 57 (±2.0) % | 68 (±2.7) % | – | – | – | – | – | – | – | – | –
Tocofersolan [LX-3001] | 50.6 (±3.6) % | 64 (±2.8) % | 345 (±27.6) μm2 | – | – | – | 61 (±2.0) % | 75 (±3.2) % | 81 (±5.4) % | – | – | – | – | – | – | – | – | –
CCCC\C=C/C=C/C=C\CCCCCCCC(=O)O [LX-2707, Punicic acid] | 54.5 (±2.0) % | 75 (±3.3) % | 331 (±15.7) μm2 | – | 76 (±5.6) % | 70 (±3.2) % | 68 (±3.3) % | 73 (±4.3) % | 78 (±3.1) % | – | – | – | – | – | – | – | – | –
CC1(C)CC[C@]2(NC(=O)C(C)(F)F)CC[C@]3(C)[C@H](C(=O)C=C4[C@@]5(C)C=C(C#N)C(=O)C(C)(C)[C@@H]5CC[C@]43C)[C@@H]2C1 [LX-2101, Omaveloxolone] | 51.1 (±16.8) % | 82 (±7.1) % | – | – | – | – | – | – | – | 35% | 73% | 46% | 45% | 58% | 69% | 81% | 82% | 38%
COC(=O)[C@]12CCC(C)(C)C[C@H]1[C@H]1C(=O)C=C3[C@@]4(C)C=C(C#N)C(=O)C(C)(C)[C@@H]4CC[C@@]3(C)[C@]1(C)CC2 [LX-2102, Bardoxolone methyl] | – | – | – | – | – | – | – | – | – | 71% | 68% | 77% | 56% | 66% | 81% | 83% | 78% | 68%
O=C1C2CCN(CC2)C1CNC(=O)C(F)(F)F (stereo not shown) [LX-5701] | 62.7 (±11.9) % | 70 (±9.6) % | 297 (±20) μm2 | 2.8 (±0.2) fold | 64 (±15.7) % | 72 (±13.5) % | 44 (±2.3) % | 68 (±6.3) % | 71 (±4.0) % | 71% | 58% | 61% | 59% | 70% | 38% | 79% | 71% | 62%
